According to patent US8283353B2, “Fused ring compound and use thereof” (Takeda Pharmaceutical Company Limited, priority 2009, dated 2012):

What was measured:
human AT1 receptor = target: T1, human AT1 receptor (Homo sapiens, UniProt P30556); assay: AT1 receptor antagonistic activity: [125I]-angiotensin II binding assay on human AT1 receptor-expressing CHO-K1 cellular membrane fraction; settings: 22.5 pM [125I]-angiotensin II, 1 hr room temperature
T1 construct: expressed in transfected cells; membrane fraction
T1 sequence (P30556 1-359): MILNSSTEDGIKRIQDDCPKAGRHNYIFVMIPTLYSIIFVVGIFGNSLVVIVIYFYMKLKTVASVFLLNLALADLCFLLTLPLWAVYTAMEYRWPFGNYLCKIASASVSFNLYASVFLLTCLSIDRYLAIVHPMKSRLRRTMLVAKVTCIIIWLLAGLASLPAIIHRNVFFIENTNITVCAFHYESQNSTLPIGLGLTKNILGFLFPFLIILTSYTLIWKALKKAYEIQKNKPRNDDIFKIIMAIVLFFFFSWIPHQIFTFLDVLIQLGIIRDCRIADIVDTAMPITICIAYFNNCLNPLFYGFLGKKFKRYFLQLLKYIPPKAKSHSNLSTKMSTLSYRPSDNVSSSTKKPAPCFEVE
Summary of the method: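 Competition binding used radiolabelled angiotensin II on stably transfected CHO-K1 membrane fractions in Tris pH 7.4/MgCl2 buffer, optionally containing 0.3 mg/mL fatty acid-free BSA, 1 hr at room temperature. Filtration onto GF/C separated bound tracer, and nonspecific binding was measured with candesartan.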

human PPARγ = target: T2, human PPARγ (Homo sapiens, UniProt P37231); assay: PPARγ agonistic activity: luciferase reporter assay in PPARγ:RXRα:4ERPP/CHO-K1 cells; format: cell-based; settings: CHO-K1, test compound 10^−6 M; luciferase activity of control compound X (1 μM) = 100%, non-administration group = 0%
T2 construct: expressed in transfected cells
T2 sequence (P37231 1-477 isoform P37231-2): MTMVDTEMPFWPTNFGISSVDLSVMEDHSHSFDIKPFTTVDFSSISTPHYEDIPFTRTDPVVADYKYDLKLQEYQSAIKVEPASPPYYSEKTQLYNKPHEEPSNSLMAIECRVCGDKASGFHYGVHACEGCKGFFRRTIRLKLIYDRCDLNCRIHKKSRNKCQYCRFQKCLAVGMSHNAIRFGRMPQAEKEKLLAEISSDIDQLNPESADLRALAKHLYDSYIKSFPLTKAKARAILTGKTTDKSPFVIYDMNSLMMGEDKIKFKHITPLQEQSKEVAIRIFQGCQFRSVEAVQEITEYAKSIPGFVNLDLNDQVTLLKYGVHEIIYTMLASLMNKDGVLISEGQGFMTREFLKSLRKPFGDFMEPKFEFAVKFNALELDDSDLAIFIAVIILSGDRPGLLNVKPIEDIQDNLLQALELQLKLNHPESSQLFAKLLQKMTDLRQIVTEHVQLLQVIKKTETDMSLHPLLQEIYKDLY
T2 sequence (P19793 1-462 partner): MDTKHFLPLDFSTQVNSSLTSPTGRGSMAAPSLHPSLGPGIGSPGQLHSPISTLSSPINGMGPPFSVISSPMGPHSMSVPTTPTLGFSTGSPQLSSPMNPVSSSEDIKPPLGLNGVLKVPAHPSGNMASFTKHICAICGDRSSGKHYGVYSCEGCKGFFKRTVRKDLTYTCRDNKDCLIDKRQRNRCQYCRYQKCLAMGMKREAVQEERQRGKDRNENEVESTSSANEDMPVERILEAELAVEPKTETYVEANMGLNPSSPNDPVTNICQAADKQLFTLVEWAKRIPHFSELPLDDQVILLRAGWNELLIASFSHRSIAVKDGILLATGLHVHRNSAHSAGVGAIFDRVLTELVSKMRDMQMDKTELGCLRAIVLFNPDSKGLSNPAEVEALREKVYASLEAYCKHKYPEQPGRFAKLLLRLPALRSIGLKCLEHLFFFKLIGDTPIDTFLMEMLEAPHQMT
Summary of the method: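 Activity is expressed relative to untreated cells (0%) and 1 μM reference compound X (100%), from luciferase luminescence. Reporter line: PPARγ:RXRα:4ERPP/CHO-K1, exposed to compound for one day at 37 °C in F12 medium containing 0.1% fatty-acid-free BSA.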

Structure (SMILES) | IC50 (human AT1 receptor) | activation at 1 µM (human PPARγ)
CCCc1c(Cc2ccc(-c3ccccc3-c3noc(=O)[nH]3)cc2F)c(=O)n(Cc2ccc(OC)cc2OC)c2ncnn12 [Example 37, 4-(2,4-dimethoxybenzyl)-6-{[3-fluoro-2′-(5-oxo-4,5-dihydro-1,2,4-oxadiazol-3-yl)biphenyl-4-yl]methyl}-7-propyl[1,2,4]triazolo[1,5-a]pyrimidin-5(4H)-one] | 2.5 nM | 33%
CCCc1c(Cc2ccc(-c3ccccc3-c3noc(=O)[nH]3)cc2)c(=O)n(C2CCC3(CC2)O[C@H]2COC[C@H]2O3)c2ncnn12 (stereo partly shown) [Example 293, 6-{[2′-(5-oxo-4,5-dihydro-1,2,4-oxadiazol-3-yl)biphenyl-4-yl]methyl}-7-propyl-4-(tetrahydrospiro[cyclohexane-1,2′-furo[3,4-d][1,3]dioxol]-4-yl)[1,2,4]triazolo[1,5-a]pyrimidin-5(4H)-one] | 2.3 nM | 28%
CCCCc1c(Cc2ccc(-c3ccccc3-c3noc(=O)[nH]3)cc2)c(=O)n(C2CCC(O)CC2)c2ncnn12 (stereo not shown) [Example 147, 7-butyl-4-(4-hydroxycyclohexyl)-6-{[2′-(5-oxo-4,5-dihydro-1,2,4-oxadiazol-3-yl)biphenyl-4-yl]methyl}[1,2,4]triazolo[1,5-a]pyrimidin-5(4H)-one] | 1 nM | 26%
CCCc1c(Cc2ccc(-c3ccccc3-c3noc(=O)[nH]3)cc2F)c(=O)n([C@H]2CC[C@H](OC(C)C(O)(CF)CF)CC2)c2ncnn12 (stereo partly drawn) [Example 364, 4-{trans-4-[3-fluoro-2-(fluoromethyl)-2-hydroxy-1-methylpropoxy]cyclohexyl}-6-{[3-fluoro-2′-(5-oxo-4,5-dihydro-1,2,4-oxadiazol-3-yl)biphenyl-4-yl]methyl}-7-propyl[1,2,4]triazolo[1,5-a]pyrimidin-5(4H)-one] | 2.8 nM | 29%
CCCc1c(Cc2ccc(-c3ccccc3-c3noc(=O)[nH]3)cc2)c(=O)n(C2CCC2)c2nc(C)nn12 [Example 83, 4-cyclobutyl-2-methyl-6-{[2′-(5-oxo-4,5-dihydro-1,2,4-oxadiazol-3-yl)biphenyl-4-yl]methyl}-7-propyl[1,2,4]triazolo[1,5-a]pyrimidin-5(4H)-one] | 1.5 nM | 16%
CCCc1c(Cc2ccc(-c3ccccc3-c3noc(=O)[nH]3)cc2)c(=O)n([C@H]2CC[C@H](OC(C)C(C)O)CC2)c2ncnn12 (stereo partly drawn) [Example 299, 4-[trans-4-(2-hydroxy-1-methylpropoxy)cyclohexyl]-6-{[2′-(5-oxo-4,5-dihydro-1,2,4-oxadiazol-3-yl)biphenyl-4-yl]methyl}-7-propyl[1,2,4]triazolo[1,5-a]pyrimidin-5(4H)-one] | 1.8 nM | 19%
C=C1COC2(CCC(n3c(=O)c(Cc4ccc(-c5ccccc5-c5noc(=O)[nH]5)cc4)c(CCC)n4ncnc34)CC2)OC1 [Example 285, 4-(3-methylidene-1,5-dioxaspiro[5.5]undec-9-yl)-6-{[2′-(5-oxo-4,5-dihydro-1,2,4-oxadiazol-3-yl)biphenyl-4-yl]methyl}-7-propyl[1,2,4]triazolo[1,5-a]pyrimidin-5(4H)-one] | 3.1 nM | 34%
CCCc1c(Cc2ccc(-c3ccccc3-c3noc(=O)[nH]3)cc2)c(=O)n([C@H]2CC[C@H](OCC(C)(O)CF)CC2)c2nc(C)nn12 (stereo partly drawn) [Example 354, 4-[trans-4-(3-fluoro-2-hydroxy-2-methylpropoxy)cyclohexyl]-2-methyl-6-{[2′-(5-oxo-4,5-dihydro-1,2,4-oxadiazol-3-yl)biphenyl-4-yl]methyl}-7-propyl[1,2,4]triazolo[1,5-a]pyrimidin-5(4H)-one] | 1.2 nM | 18%
CCCc1c(Cc2ccc(-c3ccccc3-c3noc(=O)[nH]3)cc2)c(=O)n(Cc2ccc(C(C)=O)cc2)c2ncnn12 [Example 28, 4-(4-acetylbenzyl)-6-{[2′-(5-oxo-4,5-dihydro-1,2,4-oxadiazol-3-yl)biphenyl-4-yl]methyl}-7-propyl[1,2,4]triazolo[1,5-a]pyrimidin-5(4H)-one] | 3 nM | 49%
CCCc1c(Cc2ccc(-c3ccccc3-c3noc(=O)[nH]3)cc2F)c(=O)n(C2CCCOC2)c2ncnn12 (stereo not shown) [Example 121, 6-{[3-fluoro-2′-(5-oxo-4,5-dihydro-1,2,4-oxadiazol-3-yl)biphenyl-4-yl]methyl}-7-propyl-4-(tetrahydro-2H-pyran-3-yl)[1,2,4]triazolo[1,5-a]pyrimidin-5(4H)-one] | 1.9 nM | 31%
CCCc1c(Cc2ccc(-c3ccccc3-c3noc(=O)[nH]3)cc2)c(=O)n([C@H]2CC[C@H](OCC3(C#N)CCC3)CC2)c2ncnn12 [Example 227, 1-[({trans-4-[5-oxo-6-{[2′-(5-oxo-4,5-dihydro-1,2,4-oxadiazol-3-yl)biphenyl-4-yl]methyl}-7-propyl[1,2,4]triazolo[1,5-a]pyrimidin-4(5H)-yl]cyclohexyl}oxy)methyl]cyclobutanecarbonitrile] | 2.5 nM | 23%
CCCc1c(Cc2ccc(-c3ccccc3-c3noc(=O)[nH]3)cc2)c(=O)n(C2CCC(C)OC2)c2nc(C)nn12 (stereo not shown) [Example 144, 2-methyl-4-(6-methyltetrahydro-2H-pyran-3-yl)-6-{[2′-(5-oxo-4,5-dihydro-1,2,4-oxadiazol-3-yl)biphenyl-4-yl]methyl}-7-propyl[1,2,4]triazolo[1,5-a]pyrimidin-5(4H)-one] | 1.4 nM | 20%
CCCc1c(Cc2ccc(-c3ccccc3-c3noc(=O)[nH]3)cc2)c(=O)n(C2CCC3(CC2)OC(C)(C)C(C)(C)O3)c2ncnn12 [Example 180, 6-{[2′-(5-oxo-4,5-dihydro-1,2,4-oxadiazol-3-yl)biphenyl-4-yl]methyl}-7-propyl-4-(2,2,3,3-tetramethyl-1,4-dioxaspiro[4.5]dec-8-yl)[1,2,4]triazolo[1,5-a]pyrimidin-5(4H)-one] | 3.5 nM | 31%
CCCc1c(Cc2ccc(-c3ccccc3-c3noc(=O)[nH]3)cc2F)c(=O)n([C@H]2CC[C@H](OC3(C(C)(C)O)CC3)CC2)c2ncnn12 [Example 362, 6-{[3-fluoro-2′-(5-oxo-4,5-dihydro-1,2,4-oxadiazol-3-yl)biphenyl-4-yl]methyl}-4-(trans-4-{[1-(1-hydroxy-1-methylethyl)cyclopropyl]oxy}cyclohexyl)-7-propyl[1,2,4]triazolo[1,5-a]pyrimidin-5(4H)-one] | 2.5 nM | 26%
CCCc1c(Cc2ccc(-c3ccccc3-c3noc(=O)[nH]3)cc2)c(=O)n(C2CCCCC2)c2nc(C)nn12 [Example 78, 4-cyclohexyl-2-methyl-6-{[2′-(5-oxo-4,5-dihydro-1,2,4-oxadiazol-3-yl)biphenyl-4-yl]methyl}-7-propyl[1,2,4]triazolo[1,5-a]pyrimidin-5(4H)-one] | 1.8 nM | 21%
CCCc1c(Cc2ccc(-c3ccccc3-c3noc(=O)[nH]3)cc2)c(=O)n([C@H]2CC[C@]3(CCCO3)CC2)c2ncnn12 [Example 150, 4-[(5S,8S)-1-oxaspiro[4.5]dec-8-yl]-6-{[2′-(5-oxo-4,5-dihydro-1,2,4-oxadiazol-3-yl)biphenyl-4-yl]methyl}-7-propyl[1,2,4]triazolo[1,5-a]pyrimidin-5(4H)-one] | 1.4 nM | 58%
CCCc1c(Cc2ccc(-c3ccccc3-c3noc(=O)[nH]3)cc2)c(=O)n(C2CCC(=NOC3CCOCC3)CC2)c2ncnn12 (stereo not shown) [Example 195, 6-{[2′-(5-oxo-4,5-dihydro-1,2,4-oxadiazol-3-yl)biphenyl-4-yl]methyl}-7-propyl-4-{4-[(tetrahydro-2H-pyran-4-yloxy)imino]cyclohexyl}[1,2,4]triazolo[1,5-a]pyrimidin-5(4H)-one] | 2.5 nM | 19%
